Experimental data from PubChem BioAssay (NCI).
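Interpolation was linear, between the two tested concentrations surrounding the appropriate level; five concentrations were tested over 48 hours in 96-well plates. Here, GI50 denotes the concentration required for 50% inhibition of growth. TGI: total growth inhibition.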

What was measured:
Assay in all cases: inhibition of tumour cell growth, NCI panel, 48 h
RPMI-8226 leukemia = system: RPMI-8226 leukemia
COLO 205 colon = system: COLO 205 colon
SW-620 colon = system: SW-620 colon
M14 melanoma = system: M14 melanoma
SN12C renal = system: SN12C renal
CAKI-1 renal = system: CAKI-1 renal
OVCAR-4 ovarian = system: OVCAR-4 ovarian
SK-MEL-28 melanoma = system: SK-MEL-28 melanoma
NCI-H23 lung = system: NCI-H23 lung
HS 578T breast = system: HS 578T breast

| Structure (SMILES) | TGI (RPMI-8226 leukemia) [µM] | TGI (COLO 205 colon) [µM] | TGI (SW-620 colon) [µM] | TGI (M14 melanoma) [µM] | TGI (SN12C renal) [µM] | TGI (CAKI-1 renal) [µM] | TGI (OVCAR-4 ovarian) [µM] | TGI (SK-MEL-28 melanoma) [µM] | TGI (NCI-H23 lung) [µM] | GI50 (RPMI-8226 leukemia) [µM] | GI50 (COLO 205 colon) [µM] | GI50 (SW-620 colon) [µM] | GI50 (M14 melanoma) [µM] | GI50 (SN12C renal) [µM] | GI50 (OVCAR-4 ovarian) [µM] | GI50 (NCI-H23 lung) [µM] | GI50 (HS 578T breast) [µM] | TGI (HS 578T breast) [µM] | GI50 (SK-MEL-28 melanoma) [µM] |
| --- | --- | --- | --- | --- | --- | --- | --- | --- | --- | --- | --- | --- | --- | --- | --- | --- | --- | --- | --- |
| CN1c2ccccc2N(C(=O)c2ccc([N+](=O)[O-])cc2)C(CC(=O)O)c2cccn21 (configuration not stated) | > 100 | > 100 | > 100 | > 100 | > 100 | > 100 | > 100 | > 100 | > 100 | – | – | – | – | – | – | – | – | – | – |
| Cc1cc(NCCCCCCCCNc2cc(C)nc3cc(N)ccc23)c2ccc(N)cc2n1 | > 100 | 31.2 | – | 35.6 | > 100 | > 100 | > 100 | 48.3 | 52.8 | – | – | – | – | – | – | – | – | – | – |
| O=C(Nc1ccc2[nH]nc(-c3ccncc3)c2c1)[C@@H]1CCN(CC(=O)N2CCN(c3ccc(-c4ncccn4)cc3)CC2)C1 | > 66.7 | > 82.3 | > 100 | 0.289 | > 100 | – | > 100 | – | > 100 | 4.29 | < 0.012 | 0.101 | 0.0282 | > 100 | 5.91 | 0.0991 | > 100 | > 100 | – |
| O=C(/C=C/c1cc(Cl)cc(Cl)c1O)c1cccc(O)c1 | > 100 | 32.7 | > 100 | > 100 | 27.7 | > 100 | > 100 | > 100 | > 100 | – | – | – | – | – | – | – | – | – | – |
| CCCCCN(CCCCC)C(=O)[C@@H](CCC(=O)O)NC(=O)c1cc2ccccc2[nH]1 | 35.4 | 94.9 | > 100 | 53.4 | > 100 | 67.6 | > 100 | 57.5 | 58 | – | – | – | – | – | – | – | – | – | – |
| Cc1cn(C2CC(O)C(COC(=O)c3ccccc3)O2)c(=O)[nH]c1=O (configuration not stated) | > 100 | > 100 | > 100 | > 100 | > 100 | > 100 | > 100 | > 100 | > 100 | – | – | – | – | – | – | – | – | – | – |
| Cc1c(Cl)cccc1NC(=O)C(=O)C(C(=O)c1ccccc1-c1ccccc1)C1OC(=O)c2ccccc21 (configuration not stated) | 59.1 | 39.7 | 49 | 36.3 | – | – | – | 44.7 | 30.3 | – | – | – | – | – | – | – | – | – | – |
| Nc1ncnc2c1ncn2[C@]1(CO)C=C(CO)C(O)C1O (some centres not stated) | > 100 | > 100 | > 100 | > 100 | > 100 | > 100 | > 100 | > 100 | > 100 | – | – | – | – | – | – | – | – | – | – |
| COC(=O)C1CCc2c1c(=O)n1c([nH]c3ccccc31)c2C#N (configuration not stated) | > 100 | > 100 | > 100 | > 100 | – | > 100 | > 100 | > 100 | > 100 | – | – | – | – | – | – | – | – | – | – |
| CN(CCN1C(=O)c2cc([N+](=O)[O-])cc3cc([N+](=O)[O-])cc(c23)C1=O)CCN1C(=O)c2cc([N+](=O)[O-])cc3cc([N+](=O)[O-])cc(c23)C1=O | > 21.2 | 14 | 16.7 | 9.23 | > 100 | 0.618 | > 100 | 20.3 | 27.9 | – | – | – | – | – | – | – | – | – | – |
| O=C(N/C(=C\c1ccc(Cl)cc1)c1nc2ccccc2[nH]1)c1ccccc1 | 42.6 | 35.6 | 64 | 34.1 | 49.2 | 54.5 | 37.9 | 36.4 | 42.9 | – | – | – | – | – | – | – | – | – | – |
| COC(=O)CCC(NC(=S)N/N=C(\C)c1cnc2ccccc2n1)C(=O)OC (configuration not stated) | 36.8 | 5.37 | > 100 | > 100 | > 100 | – | > 100 | > 100 | > 100 | – | – | – | – | – | – | – | – | – | – |
| COc1ccc(C2=C(Cl)c3cc(OC)c(OC)cc3C2OC)cc1OC (configuration not stated) | > 100 | > 100 | 49.2 | > 100 | > 100 | > 100 | > 100 | > 100 | > 100 | – | – | – | – | – | – | – | – | – | – |
| Cn1c2c(c3ccccc31)CCN(CCCCN1CCCCC1)C2=O | > 100 | > 100 | > 100 | > 100 | > 100 | > 100 | > 100 | > 100 | > 100 | – | – | – | – | – | – | – | – | – | – |
| CC(=O)OCC1OC(n2cc(F)c(=O)[nH]c2=O)C(NC(=O)N(CCCl)N=O)C(OC(C)=O)C1OC(C)=O (configuration not stated) | > 100 | > 100 | > 100 | > 100 | > 100 | > 100 | > 100 | > 100 | > 100 | – | – | – | – | – | – | – | – | – | – |
| COc1ccc(NC(=O)C(=O)c2c(O)c3ccc(O)cc3oc2=O)c([N+](=O)[O-])c1 | – | > 100 | > 100 | > 100 | – | > 100 | > 100 | > 100 | > 100 | – | – | – | – | – | – | – | – | – | – |
| CCC(C)CCOC(=O)c1ccc(N=Cc2ccc(C=Nc3ccc(C(=O)OCCC(C)CC)cc3)cc2)cc1 (configuration not stated) | > 100 | > 100 | > 100 | > 100 | > 100 | > 100 | > 100 | > 100 | > 100 | – | – | – | – | – | – | – | – | – | – |

| Structure (SMILES) | TGI (RPMI-8226 leukemia) [µM] | TGI (COLO 205 colon) [µM] | TGI (SW-620 colon) [µM] | TGI (M14 melanoma) [µM] | TGI (SN12C renal) [µM] | TGI (CAKI-1 renal) [µM] | TGI (OVCAR-4 ovarian) [µM] | TGI (SK-MEL-28 melanoma) [µM] | TGI (NCI-H23 lung) [µM] | GI50 (RPMI-8226 leukemia) [µM] | GI50 (COLO 205 colon) [µM] | GI50 (SW-620 colon) [µM] | GI50 (M14 melanoma) [µM] | GI50 (SN12C renal) [µM] | GI50 (OVCAR-4 ovarian) [µM] | GI50 (NCI-H23 lung) [µM] | GI50 (HS 578T breast) [µM] | TGI (HS 578T breast) [µM] | GI50 (SK-MEL-28 melanoma) [µM] |
| --- | --- | --- | --- | --- | --- | --- | --- | --- | --- | --- | --- | --- | --- | --- | --- | --- | --- | --- | --- |
| CN1C(=O)CCC1(O)C1C=CC=CC1 (configuration not stated) | > 100 | > 100 | > 100 | > 100 | > 100 | > 100 | > 100 | > 100 | > 100 | – | – | – | – | – | – | – | – | – | – |
| N#Cc1c(-c2ccc(Cl)c(Cl)c2)c(-c2ccc(Cl)c(Cl)c2)nn(CC(=O)O)c1=O | > 100 | > 100 | > 100 | > 100 | > 100 | > 100 | > 100 | > 100 | – | – | – | – | – | – | – | – | – | – | – |
| O=C1NC(Cc2ccc(O)cc2)C(=O)N2CCCC12 (configuration not stated) | > 100 | > 100 | > 100 | > 100 | > 100 | > 100 | > 100 | > 100 | – | – | – | – | – | – | – | – | – | – | – |
| CC1=Nc2ccccc2S/C1=C(/C)NNS(=O)(=O)c1ccc(C)cc1 | > 100 | > 100 | > 100 | > 100 | > 100 | > 100 | > 100 | > 100 | > 100 | – | – | – | – | – | – | – | – | – | – |
| Cc1ccc(S(=O)(=O)OCCn2cnc3nc(NC(=O)c4ccccc4)[nH]c(=O)c32)cc1 | > 100 | > 100 | > 100 | > 100 | > 100 | > 100 | > 100 | > 100 | – | – | – | – | – | – | – | – | – | – | – |
| CN(C)C=Nc1ccn(CCO)c(=O)n1 | – | > 100 | > 100 | > 100 | > 100 | – | > 100 | > 100 | > 100 | – | – | – | – | – | – | – | – | – | – |
| N#Cc1cccc2c1Nc1ccccc1S2 | > 100 | > 100 | > 100 | > 100 | > 100 | > 100 | > 100 | > 100 | > 100 | – | – | – | – | – | – | – | – | – | – |
| C[C@@H](NC1CCCC[C@H]1O)c1ccccc1 (some centres not stated) | > 100 | > 100 | > 100 | > 100 | > 100 | – | > 100 | > 100 | > 100 | – | – | – | – | – | – | – | – | – | – |
| COc1ccc(C/C(=N/O)C(=O)NCCc2cc(Br)c(OCCCN(C)C)c(Br)c2)cc1Br | – | 40.2 | 31.8 | 31.6 | 33.8 | 69.4 | 38.8 | 35.2 | – | – | – | – | – | – | – | – | – | – | – |
| COP(=O)(OC)C(=O)N1N(c2ccc([N+](=O)[O-])cc2)C(=O)C(C)NC1(NNc1ccc([N+](=O)[O-])cc1)P(=O)(OC)OC (configuration not stated) | > 100 | > 100 | > 100 | > 100 | > 100 | > 100 | > 100 | > 100 | > 100 | – | – | – | – | – | – | – | – | – | – |
| N.N.N.N.N.[Co+3].[I-].[N-]=[N+]=[N-] | > 100 | > 100 | > 100 | > 100 | > 100 | – | > 100 | > 100 | > 100 | 35.5 | > 100 | > 100 | > 100 | > 100 | > 100 | > 100 | – | – | > 100 |
| O=C1C2Nc3ccccc3SC2C(=O)N1c1ccc(Br)cc1 (configuration not stated) | > 100 | > 100 | > 100 | > 100 | > 100 | – | 74.2 | > 100 | > 100 | – | – | – | – | – | – | – | – | – | – |
| CC(C)OP(=O)(OC(C)C)/C(Cl)=N/Nc1ccc([N+](=O)[O-])cc1 | > 100 | > 100 | > 100 | > 100 | > 100 | > 100 | > 100 | > 100 | > 100 | – | – | – | – | – | – | – | – | – | – |
| O=C(NCCCCCCCCCCCCNC(=O)c1cccc2ccccc12)c1cccc2ccccc12 | > 100 | > 100 | > 100 | > 100 | > 100 | 68.2 | 20.5 | > 100 | > 100 | – | – | – | – | – | – | – | – | – | – |
| C/C(=C1/N=C(c2cc([N+](=O)[O-])ccc2Cl)N(c2cccc(C)c2)C1=O)c1cc2ccccc2oc1=O | 72 | > 100 | > 100 | > 100 | > 100 | > 100 | – | > 100 | > 100 | – | – | – | – | – | – | – | – | – | – |
| COC(=O)CC(NC(=O)OCc1ccccc1)C(C(C)=O)C(=O)OCc1ccccc1 (configuration not stated) | > 31.6 | > 31.6 | > 31.6 | > 31.6 | > 31.6 | > 31.6 | – | > 31.6 | > 31.6 | – | – | – | – | – | – | – | – | – | – |
